Reference: ChEMBL document CHEMBL1134100, “An unhydrolyzable analogue of N-(4-hydroxyphenyl)retinamide. synthesis and preliminary biological studies” (Bioorg Med Chem Lett, 2001)

Key:
Rattus norvegicus [1] = assay: % change in the mean tumor volume in female rats on 21 days after a diet additive of 2 mmol/kg of the compound; assay type: functional
[2] = target: T1, Retinoic acid receptor gamma (Homo sapiens, UniProt P13631); assay: Binding affinity against Retinoic acid receptor gamma
T1 sequence (P13631 whole entry): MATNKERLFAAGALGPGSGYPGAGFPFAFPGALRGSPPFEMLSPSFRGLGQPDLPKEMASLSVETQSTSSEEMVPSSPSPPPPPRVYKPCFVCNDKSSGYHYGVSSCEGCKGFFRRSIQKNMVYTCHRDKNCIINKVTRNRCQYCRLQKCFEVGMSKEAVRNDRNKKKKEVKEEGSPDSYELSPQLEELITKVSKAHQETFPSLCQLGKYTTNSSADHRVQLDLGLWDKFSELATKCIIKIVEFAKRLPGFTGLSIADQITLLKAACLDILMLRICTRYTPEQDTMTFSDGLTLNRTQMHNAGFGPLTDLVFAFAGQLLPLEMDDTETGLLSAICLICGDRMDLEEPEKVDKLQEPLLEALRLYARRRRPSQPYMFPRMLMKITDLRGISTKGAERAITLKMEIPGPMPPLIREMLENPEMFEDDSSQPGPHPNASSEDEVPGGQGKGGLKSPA

Rattus norvegicus [3] = assay: Effect on total mammary tumor volume in female rats on day 7 after a diet additive of 2 mmol/kg (+/-S.E) (p<0.05); assay type: functional
Rattus norvegicus [4] = assay: Effect on total mammary tumor volume in female rats on day 14 after a diet additive of 2 mmol/kg (+/-S.E) (p<0.05); assay type: functional
Rattus norvegicus [5] = assay: Effect on total mammary tumor volume in female rats on day 1 after a diet additive of 2 mmol/kg (+/-S.E) (p<0.05); assay type: functional
Rattus norvegicus [6] = assay: Effect on total mammary tumor volume in female rats on day 21 after a diet additive of 2 mmol/kg (+/-S.E) (p<0.05); assay type: functional

CC1=C(/C=C/C(C)=C/C=C/C(C)=C/C(=O)Cc2ccc(O)cc2)C(C)(C)CCC1 was tested, and the Change (Rattus norvegicus [1]) was -85%, the Ki [2] was > 4000 nM and the Mean tumor volume (Rattus norvegicus [3]) was 0.47 cm*3. For the same compound, the Mean tumor volume (Rattus norvegicus [4]) was 0.15 cm*3, the Mean tumor volume (Rattus norvegicus [5]) was 0.59 cm*3 and the Mean tumor volume (Rattus norvegicus [6]) was 0.09 cm*3.

With CC1=C(/C=C/C(C)=C/C=C/C(C)=C/C(=O)Nc2ccc(O)cc2)C(C)(C)CCC1 [FENRETINIDE] the Change (Rattus norvegicus [1]) was -77%, the Ki [2] was > 400 nM and the Mean tumor volume (Rattus norvegicus [3]) was 0.17 cm*3. It also gave a Mean tumor volume (Rattus norvegicus [4]) of 0.1 cm*3, a Mean tumor volume (Rattus norvegicus [5]) of 0.2 cm*3 and a Mean tumor volume (Rattus norvegicus [6]) of 0.05 cm*3.

Compound CC1=C(/C=C/C(C)=C/C=C/C(C)=C/C(=O)O)C(C)(C)CCC1 [TRETINOIN] has a Change (Rattus norvegicus [1]) of -74%, a Mean tumor volume (Rattus norvegicus [3]) of 0.46 cm*3 and a Mean tumor volume (Rattus norvegicus [4]) of 0.27 cm*3. For the same compound, the Mean tumor volume (Rattus norvegicus [5]) was 0.69 cm*3 and the Mean tumor volume (Rattus norvegicus [6]) was 0.18 cm*3.
